In BindingDB's records for doi:10.1021/acs.jnatprod.1c00014 (Jiangsu University of Science and Technology, 2021):
pIC50: −log10 of the molar value.

Target: Maltase-glucoamylase (Homo sapiens, UniProt O43451)
Experiment: Inhibition of alpha-glucosidase (unknown origin) preincubated for 5 mins followed by addition of pNPG substrate and measured after 30 mins by spectrophotometric method

Sequence of Maltase-glucoamylase (O43451 whole entry): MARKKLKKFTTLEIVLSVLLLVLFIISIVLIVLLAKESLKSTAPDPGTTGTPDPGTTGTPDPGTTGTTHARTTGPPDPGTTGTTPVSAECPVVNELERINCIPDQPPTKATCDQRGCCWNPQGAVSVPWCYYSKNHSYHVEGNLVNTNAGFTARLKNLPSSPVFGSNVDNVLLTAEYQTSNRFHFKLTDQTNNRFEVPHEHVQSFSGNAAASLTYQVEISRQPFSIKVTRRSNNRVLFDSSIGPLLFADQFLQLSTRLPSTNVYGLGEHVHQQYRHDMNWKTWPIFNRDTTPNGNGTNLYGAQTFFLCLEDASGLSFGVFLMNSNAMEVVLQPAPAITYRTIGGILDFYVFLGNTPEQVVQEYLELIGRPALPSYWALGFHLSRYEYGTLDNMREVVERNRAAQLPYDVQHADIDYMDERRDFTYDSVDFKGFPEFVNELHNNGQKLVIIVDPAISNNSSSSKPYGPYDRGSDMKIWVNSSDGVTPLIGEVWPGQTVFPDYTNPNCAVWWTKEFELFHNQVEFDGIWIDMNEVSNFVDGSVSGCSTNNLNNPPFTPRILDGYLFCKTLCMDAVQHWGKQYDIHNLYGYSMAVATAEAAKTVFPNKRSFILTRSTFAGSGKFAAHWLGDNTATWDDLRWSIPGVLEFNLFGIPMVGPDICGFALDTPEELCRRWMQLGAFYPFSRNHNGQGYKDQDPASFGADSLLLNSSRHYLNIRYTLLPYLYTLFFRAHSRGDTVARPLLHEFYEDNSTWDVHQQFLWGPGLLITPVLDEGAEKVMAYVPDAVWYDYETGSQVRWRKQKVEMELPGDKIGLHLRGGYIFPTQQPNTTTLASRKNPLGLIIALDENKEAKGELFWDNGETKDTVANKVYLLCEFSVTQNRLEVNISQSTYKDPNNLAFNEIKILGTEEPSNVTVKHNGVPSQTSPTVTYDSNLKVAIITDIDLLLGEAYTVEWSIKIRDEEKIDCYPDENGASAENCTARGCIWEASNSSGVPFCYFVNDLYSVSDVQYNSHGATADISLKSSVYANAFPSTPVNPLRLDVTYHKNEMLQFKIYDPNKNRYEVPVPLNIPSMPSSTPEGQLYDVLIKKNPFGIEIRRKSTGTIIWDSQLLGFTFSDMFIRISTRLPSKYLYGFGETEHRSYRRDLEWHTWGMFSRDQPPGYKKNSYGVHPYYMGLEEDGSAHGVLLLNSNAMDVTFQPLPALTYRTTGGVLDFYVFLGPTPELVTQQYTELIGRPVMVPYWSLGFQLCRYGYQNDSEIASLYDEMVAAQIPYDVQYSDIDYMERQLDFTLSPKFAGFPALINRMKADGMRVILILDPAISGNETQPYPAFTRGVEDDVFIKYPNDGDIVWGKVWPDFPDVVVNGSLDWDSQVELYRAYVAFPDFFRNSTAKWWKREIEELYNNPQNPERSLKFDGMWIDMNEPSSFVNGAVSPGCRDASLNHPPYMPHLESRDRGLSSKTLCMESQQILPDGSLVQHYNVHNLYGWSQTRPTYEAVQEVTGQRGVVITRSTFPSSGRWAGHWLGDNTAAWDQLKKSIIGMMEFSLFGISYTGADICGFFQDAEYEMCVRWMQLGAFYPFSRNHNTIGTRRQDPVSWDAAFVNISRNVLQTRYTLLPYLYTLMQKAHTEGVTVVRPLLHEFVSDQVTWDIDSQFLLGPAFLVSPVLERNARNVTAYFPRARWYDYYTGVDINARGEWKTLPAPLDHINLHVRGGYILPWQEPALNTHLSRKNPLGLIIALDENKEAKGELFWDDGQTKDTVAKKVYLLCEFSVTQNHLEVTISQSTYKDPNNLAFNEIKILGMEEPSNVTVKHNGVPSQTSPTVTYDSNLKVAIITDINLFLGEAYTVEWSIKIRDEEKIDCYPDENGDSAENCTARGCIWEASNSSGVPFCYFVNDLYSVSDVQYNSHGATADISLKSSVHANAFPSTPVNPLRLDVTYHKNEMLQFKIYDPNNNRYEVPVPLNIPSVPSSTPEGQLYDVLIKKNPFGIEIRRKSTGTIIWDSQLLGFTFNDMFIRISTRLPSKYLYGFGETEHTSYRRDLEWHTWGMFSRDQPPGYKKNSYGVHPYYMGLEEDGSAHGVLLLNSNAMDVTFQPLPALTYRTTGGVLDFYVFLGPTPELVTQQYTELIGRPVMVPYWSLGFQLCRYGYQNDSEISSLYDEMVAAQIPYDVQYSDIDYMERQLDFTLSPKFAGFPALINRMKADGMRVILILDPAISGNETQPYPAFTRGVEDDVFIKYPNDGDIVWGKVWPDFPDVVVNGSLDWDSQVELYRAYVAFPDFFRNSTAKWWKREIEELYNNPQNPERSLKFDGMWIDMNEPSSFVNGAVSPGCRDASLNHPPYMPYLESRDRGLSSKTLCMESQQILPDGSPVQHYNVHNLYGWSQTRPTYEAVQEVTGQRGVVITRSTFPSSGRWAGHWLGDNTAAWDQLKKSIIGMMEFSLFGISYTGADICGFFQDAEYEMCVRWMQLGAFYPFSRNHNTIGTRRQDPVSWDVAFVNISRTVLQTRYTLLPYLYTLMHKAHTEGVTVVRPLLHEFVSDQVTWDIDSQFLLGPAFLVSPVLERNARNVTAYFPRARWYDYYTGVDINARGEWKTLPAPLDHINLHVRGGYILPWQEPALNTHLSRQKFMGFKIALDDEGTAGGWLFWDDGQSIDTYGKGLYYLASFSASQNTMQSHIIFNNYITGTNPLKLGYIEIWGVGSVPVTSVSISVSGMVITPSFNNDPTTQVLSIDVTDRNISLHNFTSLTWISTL

Row | pIC50 | SMILES
1 | 4.39 | COc1ccc(-c2oc3cc(OC)cc(OC)c3c(=O)c2OCCCCCN2C[C@H](O)[C@@H](O)[C@H](O)[C@H]2CO)cc1
2 | 5.75 | COc1ccc(-c2oc3cc(OC)cc(OC)c3c(=O)c2OCCCCCCCCN2C[C@H](O)[C@@H](O)[C@H](O)[C@H]2CO)cc1
3 | 6.62 | COc1ccc(-c2oc3cc(OC)cc(OC)c3c(=O)c2OCCCCCCCCCCCN2C[C@H](O)[C@@H](O)[C@H](O)[C@H]2CO)cc1
